In US20090221624A1, “4-AMINOQUINOLINE COMPOUNDS FOR TREATING VIRUS-RELATED CONDITIONS” (priority 2005, published 2009):

Columns and labels:
[1] = tested on: RSV minigenome; assay: RSV minigenome-dependent β-galactosidase expression assay (RSV β-Gal); assay type: cell-based, respiratory syncytial virus; settings: for EC50 / inhibition at 25 µM: human respiratory syncytial virus; for EC50: Secondary Data, RSV, read-out: RSV EC50; for inhibition at 25 µM: primary screening, 25 μM final concentration, 24 hours, percent inhibition of viral replication, read-out: RSV Inh; for RSV TI: therapeutic index CC50/EC50, RSV
[2] = tested on: DNG (D2-hRuPac cells); assay: DNG antiviral activity, D2-hRuPac cells, Renilla luciferase; assay type: cell-based, Dengue fever virus; settings: Dengue virus, secondary screening
[3] = tested on: EBOV minigenome; assay: microbe, parasite or virus in culture; assay type: cell-based, Ebola virus; settings: Zaire ebolavirus; for inhibition at 25 µM: 24 h, read-out: EBOV Inh; for EC50: read-out: EBOV EC50
[4] = tested on: SINV (SR19-F-luc cells); assay: SINV antiviral activity, SR19-F-luc cells, Firefly luciferase; assay type: cell-based; settings: Sindbis virus; for inhibition at 25 µM: primary screening, 25 μM final concentration, 24 hours, percent inhibition of viral replication, read-out: SINV Inh; for EC50: secondary screening, SR19-F-luc cells
[5] = tested on: YFV (YF-hRuPac cells); assay: microbe, parasite or virus in culture; assay type: cell-based, yellow fever virus; settings: for inhibition at 25 µM / EC50: Yellow fever virus; for inhibition at 25 µM: 24 h, read-out: YFV Inh; for EC50: read-out: YFV EC50
[6] = tested on: HCV replicon (Clone A cells, Huh7, subgenomic hepatits C virus RNA); assay: HCV Neo screening assay (HCV replicon, NPTII ELISA); assay type: cell-based, hepatitis C virus; settings: for EC50 / inhibition at 25 µM: Hepatitis C virus, Huh-7; for EC50: Secondary Data, HCV; for inhibition at 25 µM: primary screening, 25 μM final concentration, 24 hours, percent inhibition of viral replication, read-out: HCV Inh; for HCV TI: therapeutic index CC50/EC50, HCV
[7] = in vitro
[8] = tested on: WNV (WN-hRuPac cells); assay: WNV antiviral activity, WN-hRuPac cells, Renilla luciferase; assay type: cell-based, West Nile virus; settings: for EC50 / inhibition at 25 µM: West Nile virus; for EC50: Secondary Data, WNV, read-out: WNV EC50; for inhibition at 25 µM: primary screening, 25 μM final concentration, 24 hours, percent inhibition of viral replication, read-out: WNV Inh; for WNV TI: therapeutic index CC50/EC50, WNV

Row | Compound | EC50 [1] [µM] | inhibition at 25 µM [1] [%] | RSV TI [1] | EC50 [2] [µM] | inhibition at 25 µM [3] [%] | EC50 [3] [µM] | inhibition at 25 µM [4] [%] | EC50 [4] [µM] | YFV TI [5] | inhibition at 25 µM [5] [%] | EC50 [5] [µM] | inhibition at 25 µM [6] [%] | CC50 ([7]; DNG CC50) [µM] | CC50 ([7]; EBOV CC50) [µM] | CC50 ([7]; HCV CC50) [µM] | CC50 ([7]; RSV CC50) [µM] | CC50 ([7]; SINV CC50) [µM] | CC50 ([7]; WNV CC50) [µM] | CC50 ([7]; YFV CC50) [µM] | inhibition at 25 µM [8] [%] | also measured
1 | CCOC(=O)c1cnc2ccc(OCC)cc2c1NCc1ccco1 [Compound 36] | 1.46 | 100 | 32.4 | 16.5 | 15.5 | 75 | -58.8 | ≥ 75 | 6.98 | 94.4 | 6.78 | 135 | 47.3 | 47.3 | 21.3 | 47.3 | 47.3 | 47.3 | 47.3 | 93.7 | EC50 [6]: 6 µM; HCV TI [6]: 3.55; EC50 [8]: 2.38 µM; WNV TI [8]: 19.87
2 | CCOC(=O)c1cnc2c(ccc3ccccc32)c1NCc1ccco1 [Compound 37] | 1.38 | 58 | 30.12 | 25.5 | 15.7 | 75 | 10.3 | ≥ 75 | 15.12 | 94.4 | 2.75 | 72.9 | 41.6 | 41.6 | 56 | 41.6 | 41.6 | 41.6 | 41.6 | 87.8 | EC50 [6]: 13 µM; HCV TI [6]: 4.31; EC50 [8]: 4.08 µM; WNV TI [8]: 10.19
3 | CCOC(=O)c1cnc2ccc(C)cc2c1Nc1ccc(N2CCOCC2)cc1 [Compound 38] | 5.05 | 98.2 | 14.85 | ≥ 75 | -36.4 | 75 | 43.2 | ≥ 75 | 1.94 | 70.8 | 38.7 | 88.4 | ≥ 75 | ≥ 75 | 19 | ≥ 75 | ≥ 75 | ≥ 75 | ≥ 75 | 36.5 | EC50 [6]: 9.5 µM; HCV TI [6]: 2
4 | CCOC(=O)c1cnc2ccc(C)cc2c1NCc1ccco1 [Compound 39] | 1.47 | 91.6 | 18.33 | 7.1 | 64.1 | 7.22 | 71.9 | ≥ 75 | 8.95 | 96.6 | 3.01 | 22.4 | 26.9 | 26.9 | ≥ 75 | 26.9 | 26.9 | 26.9 | 26.9 | 102 | EC50 [8]: 5.46 µM; WNV TI [8]: 4.94
5 | Cc1cc(Nc2cccc(C(F)(F)F)c2)c2cc(Cl)ccc2n1 [Compound 40] | 2.43 | 99.3 | 24.68 | 40.6 | 26.3 | 75 | 69.5 | 14.4 | 9.3 | 79.6 | 6.45 | 96.1 | 60 | 60 | 5.53 | 60 | 60 | 60 | 60 | 65.6 | EC50 [6]: 5.55 µM; HCV TI [6]: 1; EC50 [8]: 8.39 µM; WNV TI [8]: 7.15
